Measurements from publication PMC7688903 (Frontiers in Microbiology, 2020).
“Also recorded” adds a separate entry of the source. Where no end group is shown, it is not given here. [ ]: non-standard residue; d: D form. 2Thi = N[C@@H](Cc1cccs1)C(=O)O

How the values were obtained:
[1] = plasma from healthy volunteers; settings: human, 37°C, up to 36 h
Trypsin = experiment: trypsin in 0.1 M NH4HCO3 buffer (pH 8.2); settings: 37°C, up to 24 h

Substance	fragment found [1]	fragment found (Trypsin)
DapHorLFDapDapLLDabYLHorDabThi	(Dap) HorLFDapDapLLDabYLHorDabThi 2–14, major, 12 h	(Dap) HorLFDap (Dap) 2–5, major, 18 h; also recorded: DapHorLFDapDapLLDab (Y) 1–9, major, 18 h; also recorded: DapHorLFDapDapLLDabYLHor (Dab) 1–12, major, 18 h; also recorded: (Dap) HorLFDapDapLLDabYLHorDabThi 2–14, major, 18 h
RRIFKRLFKYLRRF	(R) IFKRLFKYLRRF 3–14, major, 12 h; also recorded: (R) RIFKRLFKYLRRF 2–14, major, 12 h	(R) RF 13–14, major, 18 h; also recorded: (K) YLRR (F) 10–13, major, 18 h; also recorded: (R) F 14, major, 18 h; also recorded: (K) YLR (R) 10–12, major, 18 h
KRLFKKLLKYLRK[2Thi]	(L) FKKLLKYLRKThi 4–14, major, 12 h	(K) Thi 14, major, 18 h; also recorded: (K) KLLK (Y) 6–9, major, 18 h; also recorded: (R)LFKK (L) 3–6, major, 18 h; also recorded: (K) LLK (Y) 7–9, major, 18 h; also recorded: (K) YLR (K) 10–12, major, 18 h; also recorded: (R) LFK (K) 3–5, major, 18 h
DabHorLFDabDabLLDabYLRDabF	(Hor) LFDabDabLLDabYLRDabF, major, 12 h	(Dab) YLRDab (F) 10–13, major, 18 h; also recorded: (Dab) DabLLDabYLRDab (F) 6–13, major, 18 h; also recorded: (Hor) LFDabDabLLDabYLR (Dab) 3–12, major, 18 h; also recorded: (Dab) HorLFDabDabLLDab (Y) 2–9, major, 18 h; also recorded: DabHorLFDabDabLLDabYLR (Dab) 1–12, major, 18 h
HorRLFKKLLKYLRKThi	(R) LFKKLLKYLRKThi 3–14, major, 12 h; also recorded: (Hor) RLFKKLLKYLRKThi 2–14, major, 12 h	(K) KLLK (Y) 6–9, major, 18 h; also recorded: (R) LFKK (L) 3–6, major, 18 h; also recorded: (K) LLK (Y) 7–9, major, 18 h; also recorded: (K) YLR (K) 10–12, major, 18 h; also recorded: (R) LFK (K) 3–5, major, 18 h
DapHorLFDapDapLLDabYLHorDabF	(Hor) LFDapDapLLDabYLHorDabF 3–14, major, 12 h; also recorded: (Dap) HorLFDapDapLLDabYLHorDabF 2–14, major, 12 h	DapHorLFDapDapLLDab (Y) 1–9, major, 18 h; also recorded: DapHorLFDapDapLLDabYLHor (Dab) 1–12, major, 18 h
